According to patent publication US10934310B2, “Inhibitors of Bruton's tyrosine kinase and method of their use” (JANSSEN PHARMACEUTICA NV, priority 2015, dated 2021):

The compounds below were run against unphosphorylated-BTK kinase domain (UP-BTK), GST-tagged human BTK (389-659aa) (Homo sapiens (Human), UniProt Q06187) (assay: BTK Kinase Lanthascreen Binding Assay). Settings: compound, 50 nM Tracer 236, 2 nM anti-GST antibody, 60 minutes; pIC50 = negative log of the IC50 in molar.
Sequence of unphosphorylated-BTK kinase domain (UP-BTK), GST-tagged human BTK (389-659aa) (Q06187 389-659): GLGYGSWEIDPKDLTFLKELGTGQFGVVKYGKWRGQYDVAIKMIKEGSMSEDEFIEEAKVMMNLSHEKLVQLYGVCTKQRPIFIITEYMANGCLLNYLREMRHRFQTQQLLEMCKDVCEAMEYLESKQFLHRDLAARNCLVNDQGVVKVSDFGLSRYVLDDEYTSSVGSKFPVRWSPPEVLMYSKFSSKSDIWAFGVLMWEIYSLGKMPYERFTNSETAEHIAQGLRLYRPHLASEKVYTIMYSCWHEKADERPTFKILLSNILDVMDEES
Protocol: BTK Kinase Lanthascreen Binding Assay:
A BTK kinase lanthascreen binding assay monitors compound binding to unphosphorylated-BTK kinase domain (UP-BTK), by competing with a fluorescent labeled tracer. […] Data were analyzed using Xlfit™ version 5.3 from ID Business Solutions (Guildford), Microsoft Excel add-in. pIC50 refers to the negative log of the IC50 in molar.
`C=CC(=O)N[C@H]1CCCC[C@H]1NC(=O)c1sc2nccc3c2c1NC(=O)N3c1ccc(OC(C)C)cc1C` (single isomer, unassigned) [Example 174, N-((1R,2S)-2-Acrylamidocyclohexyl)-5-(*R)-(4-isopropoxy-2-methylphenyl)-4-oxo-4,5-dihydro-3H-1-thia-3,5,8-triazaacenaphthylene-2-carboxamide] was tested, and the “BTK_I_binding pIC50” value was 8.28. With `C=CC(=O)N[C@@H]1CC[C@@H](NC(=O)c2sc3nccc4c3c2NC(=O)N4c2ccc(Oc3ccccc3)cc2C)C1` (single isomer, unassigned) [Example 175, N-((1R,3R)-3-Acrylamidocyclopentyl)-5-(*S)-(2-methyl-4-phenoxyphenyl)-4-oxo-4,5-dihydro-3H-1-thia-3,5,8-triazaacenaphthylene-2-carboxamide] the “BTK_I_binding pIC50” value was 8.05. With `C=CC(=O)N[C@@H]1CCC[C@H](NC(=O)c2sc3nccc4c3c2NC(=O)N4c2ccc(Oc3ccccc3)cc2C)C1` (single isomer, unassigned) [Example 176, N-((1S,3R)-3-Acrylamidocyclohexyl)-5-(*S)-(2-methyl-4-phenoxyphenyl)-4-oxo-4,5-dihydro-3H-1-thia-3,5,8-triazaacenaphthylene-2-carboxamide] the “BTK_I_binding pIC50” value was 7.78. For `CC(=O)N[C@@H]1CCC[C@H](NC(=O)c2sc3nccc4c3c2NC(=O)N4c2ccc(Oc3ccccc3)cc2C)C1` (single isomer, unassigned) [Example 180, N-((1S,3R)-3-Acetamidocyclohexyl)-5-(*S)-(2-methyl-4-phenoxyphenyl)-4-oxo-4,5-dihydro-3H-1-thia-3,5,8-triazaacenaphthylene-2-carboxamide], the “BTK_I_binding pIC50” value was 7.94. In the case of `Cc1cc(Oc2ccccc2)ccc1N1C(=O)Nc2c(C(=O)N[C@@H]3CCC[C@@H](N)C3)sc3nccc1c23` (single isomer, unassigned) [Example 181], the “BTK_I_binding pIC50” value was 7.33. With `C=CC(=O)N[C@@H]1CCC[C@@H](NC(=O)c2sc3nccc4c3c2NC(=O)N4c2ccc(Oc3ccccc3)cc2C)C1` (single isomer, unassigned) [Example 182, N-((1R,3R)-3-Acrylamidocyclohexyl)-5-(*S)-(2-methyl-4-phenoxyphenyl)-4-oxo-4,5-dihydro-3H-1-thia-3,5,8-triazaacenaphthylene-2-carboxamide] the “BTK_I_binding pIC50” value was 7.66. In the case of `C=CC(=O)N[C@@H]1CC[C@H](NC(=O)c2sc3nccc4c3c2NC(=O)N4c2ccc(OC(C)C)cc2C)C1` (single isomer, unassigned) [Example 186, N-((1S,3R)-3-Acrylamidocyclopentyl)-5-(*R)-(4-isopropoxy-2-methylphenyl)-4-oxo-4,5-dihydro-3H-1-thia-3,5,8-triazaacenaphthylene-2-carboxamide], the “BTK_I_binding pIC50” value was 7.62. In the case of `C=CC(=O)N[C@@H]1CCC[C@H](NC(=O)c2sc3nccc4c3c2NC(=O)N4c2ccc(OC(C)C)cc2C)C1` (single isomer, unassigned) [Example 190, N-((1S,3R)-3-Acrylamidocyclohexyl)-5-(*R)-(4-isopropoxy-2-methylphenyl)-4-oxo-4,5-dihydro-3H-1-thia-3,5,8-triazaacenaphthylene-2-carboxamide], the “BTK_I_binding pIC50” value was 7.10. In the case of `CC(=O)N[C@@H]1CCC[C@@H](NC(=O)c2sc3nccc4c3c2NC(=O)N4c2ccc(Oc3ccccc3)cc2C)C1` (single isomer, unassigned) [Example 195, N-((1R,3R)-3-Acetamidocyclohexyl)-5-(*S)-(2-methyl-4-phenoxyphenyl)-4-oxo-4,5-dihydro-3H-1-thia-3,5,8-triazaacenaphthylene-2-carboxamide], the “BTK_I_binding pIC50” value was 7.55. In the case of `C=CC(=O)N[C@H]1CC[C@@H](NC(=O)c2sc3nccc4c3c2NC(=O)N4c2ccc(Oc3ccccc3)cc2C)C1` (single isomer, unassigned) [Example 196, N-((1R,3S)-3-Acrylamidocyclopentyl)-5-(*S)-(2-methyl-4-phenoxyphenyl)-4-oxo-4,5-dihydro-3H-1-thia-3,5,8-triazaacenaphthylene-2-carboxamide], the “BTK_I_binding pIC50” value was 7.12. For `C=CC(=O)N[C@@H]1CCC[C@H]1NC(=O)c1sc2nccc3c2c1NC(=O)N3c1cnc(Oc2ccccc2)cc1C` (single isomer, unassigned) [Example 200, N-((1R,2R)-2-Acrylamidocyclopentyl)-5-(*S)-(4-methyl-6-phenoxypyridin-3-yl)-4-oxo-4,5-dihydro-3H-1-thia-3,5,8-triazaacenaphthylene-2-carboxamide], the “BTK_I_binding pIC50” value was 8.18. For `C=CC(=O)N[C@H]1CCCC[C@H]1NC(=O)c1sc2nccc3c2c1NC(=O)N3c1ccc(OC2CCC2)nc1C` (single isomer, unassigned) [Example 204, N-((1R,2S)-2-Acrylamidocyclohexyl)-5-(*S)-(6-cyclobutoxy-2-methylpyridin-3-yl)-4-oxo-4,5-dihydro-3H-1-thia-3,5,8-triazaacenaphthylene-2-carboxamide], the “BTK_I_binding pIC50” value was 8.03. `C=CC(=O)N[C@H]1CCCC[C@H]1NC(=O)c1sc2nccc3c2c1NC(=O)N3c1ccc(OC(C)C)nc1C` (single isomer, unassigned) [Example 209, N-((1R,2S)-2-Acrylamidocyclohexyl)-5-(*S)-(6-isopropoxy-2-methylpyridin-3-yl)-4-oxo-4,5-dihydro-3H-1-thia-3,5,8-triazaacenaphthylene-2-carboxamide] was tested, and the “BTK_I_binding pIC50” value was 7.31. `Cc1cc(Oc2ccccc2)ncc1N1C(=O)Nc2c(C(=O)N[C@@H]3CCC[C@@H]3NC(=O)CCCl)sc3nccc1c23` (single isomer, unassigned) [Example 210, N-((1R,2S)-2-(3-Chloropropanamido)cyclopentyl)-5-(*S)-(4-methyl-6-phenoxypyridin-3-yl)-4-oxo-4,5-dihydro-3H-1-thia-3,5,8-triazaacenaphthylene-2-carboxamide] was tested, and the “BTK_I_binding pIC50” value was 7.19. For `C=CC(=O)N[C@@H]1CCCC[C@H]1NC(=O)c1sc2nccc3c2c1NC(=O)N3c1cnc(Oc2ccccc2)cc1C` (single isomer, unassigned) [Example 213, N-((1R,2R)-2-Acrylamidocyclohexyl)-5-(*S)-(4-methyl-6-phenoxypyridin-3-yl)-4-oxo-4,5-dihydro-3H-1-thia-3,5,8-triazaacenaphthylene-2-carboxamide], the “BTK_I_binding pIC50” value was 7.30. In the case of `C=CC(=O)N[C@@H]1CCC[C@@H](NC(=O)c2sc3nccc4c3c2NC(=O)N4c2ccc(OC(C)C)cc2C)C1` (single isomer, unassigned) [Example 215, N-((1R,3R)-3-Acrylamidocyclohexyl)-5-(*R)-(4-isopropoxy-2-methylphenyl)-4-oxo-4,5-dihydro-3H-1-thia-3,5,8-triazaacenaphthylene-2-carboxamide], the “BTK_I_binding pIC50” value was 7.13. With `C=CC(=O)N[C@@H]1CCC[C@H]1NC(=O)c1sc2nccc3c2c1NC(=O)N3c1cnc(Oc2ccccc2)nc1C` (single isomer, unassigned) [Example 219, N-((1R,2R)-2-Acrylamidocyclopentyl)-5-(*S)-(4-methyl-2-phenoxypyrimidin-5-yl)-4-oxo-4,5-dihydro-3H-1-thia-3,5,8-triazaacenaphthylene-2-carboxamide] the “BTK_I_binding pIC50” value was 7.94. `C=CC(=O)N[C@H]1CCCC[C@H]1NC(=O)c1sc2nccc3c2c1NC(=O)N3c1cnc(OC2CCC2)cc1C` (single isomer, unassigned) [Example 221, N-((1R,2S)-2-Acrylamidocyclohexyl)-5-(*S)-(6-cyclobutoxy-4-methylpyridin-3-yl)-4-oxo-4,5-dihydro-3H-1-thia-3,5,8-triazaacenaphthylene-2-carboxamide] was tested, and the “BTK_I_binding pIC50” value was 8.29. With `C=CC(=O)N[C@H]1CC[C@H](NC(=O)c2sc3nccc4c3c2NC(=O)N4c2ccc(Oc3ccccc3)cc2C)C1` (single isomer, unassigned) [Example 226, N-((1S,3S)-3-Acrylamidocyclopentyl)-5-(*S)-(2-methyl-4-phenoxyphenyl)-4-oxo-4,5-dihydro-3H-1-thia-3,5,8-triazaacenaphthylene-2-carboxamide] the “BTK_I_binding pIC50” value was 6.85. In the case of `Cc1cc(Oc2ccccc2)ccc1N1C(=O)Nc2c(C(=O)N[C@H]3CCC[C@@H](N)C3)sc3nccc1c23` (single isomer, unassigned) [Example 230, N-((1S,3R)-3-Aminocyclohexyl)-5-(*S)-(2-methyl-4-phenoxyphenyl)-4-oxo-4,5-dihydro-3H-1-thia-3,5,8-triazaacenaphthylene-2-carboxamide], the “BTK_I_binding pIC50” value was 7.24. For `C=CC(=O)N[C@H]1CCC[C@H](NC(=O)c2sc3nccc4c3c2NC(=O)N4c2ccc(Oc3ccccc3)cc2C)C1` (single isomer, unassigned) [Example 231, N-((1S,3S)-3-Acrylamidocyclohexyl)-5-(*S)-(2-methyl-4-phenoxyphenyl)-4-oxo-4,5-dihydro-3H-1-thia-3,5,8-triazaacenaphthylene-2-carboxamide], the “BTK_I_binding pIC50” value was 6.56. For `Cc1cc(Oc2ccccc2)ncc1N1C(=O)Nc2c(C(=O)N[C@@H]3CCC[C@H]3N)sc3nccc1c23` (single isomer, unassigned) [Example 233], the “BTK_I_binding pIC50” value was 6.85. For `C=CC(=O)N[C@H]1CCC[C@@H](NC(=O)c2sc3nccc4c3c2NC(=O)N4c2ccc(Oc3ccccc3)cc2C)C1` (single isomer, unassigned) [Example 237, N-((1R,3S)-3-Acrylamidocyclohexyl)-5-(*S)-(2-methyl-4-phenoxyphenyl)-4-oxo-4,5-dihydro-3H-1-thia-3,5,8-triazaacenaphthylene-2-carboxamide], the “BTK_I_binding pIC50” value was 6.56.
